The experiment has as its system Xylella fastidiosa (Xf). It is filed as cell-based. Conditions: crude ethyl acetate extract of culture supernatant; activity traced to metabolite by NMR and MS.

Consider `C/C=C/c1cc2c(c(=O)o1)C(=O)[C@@H](O)[C@H](C)O2` [radicinin], for which the “anti-Xf activity of extract / metabolite” value was “inhibitory activity”.

Source of the values: US20200000099A1 (priority 2017, published 2020).
